The values that follow come from the RepoRT retention time repository (doi:10.1016/j.jhazmat.2019.121712).

The nature of the series: Thermo Scientific Acclaim RSLC 120 C18, 100 × 2.1 mm, 2.2 µm, 30 °C; A: 90% water + 10% methanol + 0.01% formic acid + 5 mM ammonium formate; B: methanol + 0.01% formic acid + 5 mM ammonium formate; gradient (min/%B) 0.1/1 3/39 14/99.9 16/99.9. Conditions: stereoisomer not certain.
For `CCCCCc1cc(O)c2c(c1)OC(C)(C)c1ccc(C)cc1-2`, the LC retention time is 13.7 min.

On to `CCc1cc(OC)c(CC(C)N)cc1OC` (configuration not stated), for which the LC retention time was 6.88 min.

For the compound `Cc1nn(C)c(Oc2ccccc2)c1C=NOCc1ccc(C(=O)OC(C)(C)C)cc1`, the LC retention time was found to be 13.2 min.

Turning to `CC(Cc1ccccc1)N1C=C(NC(=O)N=C2C=CC(=O)C=C2)ON1` (configuration not stated), the LC retention time was 7.24 min.

On to `COc1cccc(C(=O)NN(C(=O)c2cc(C)cc(C)c2)C(C)(C)C)c1C`, for which the LC retention time is 9.56 min.

On to `CSc1nc(N=[N+]=[N-])nc(NC(C)C)n1`, for which the LC retention time is 9.71 min.

Take `CCOC(=O)Nc1cccc(OC(=O)Nc2ccccc2)c1`: the LC retention time was found to be 8.57 min.

As to `CCOP(=O)(NC(C)C)Oc1ccc(SC)c(C)c1` (configuration not stated), the LC retention time amounted to 10.4 min.

Consider `N#CC1CCCN1C(=O)CNC12CC3CC(CC(O)(C3)C1)C2` (configuration not stated), for which the LC retention time amounted to 3.26 min.

On to `Cn1c(=O)c2[nH]cnc2n(C)c1=O`, for which the LC retention time came to 3.93 min.

Turning to `O=C(O)c1cccc(Oc2ccccc2)c1`, the LC retention time was determined as 9.38 min.

Regarding `COC(=O)C(NC(=O)c1nn(CC2CCCCC2)c2ccccc12)C(C)(C)C` (configuration not stated), the LC retention time was found to be 12.9 min.

Consider `C=C1CC23CC1(O)CCC2C12C=CC(O)C(C)(C(=O)O1)C2C3C(=O)O` (configuration not stated), for which the LC retention time amounted to 4.91 min.

As to `CN1CCCC1Cc1c[nH]c2ccc(CCS(=O)(=O)c3ccccc3)cc12` (configuration not stated), the LC retention time was 5.51 min.

In the case of `CCCCCn1cc(C(=O)c2ccc(C)c3ccccc23)c2ccccc21`, the LC retention time came out at 12.9 min.

As to `COc1ccc(N)cc1N`, the LC retention time was 2.37 min.

For `CCOC(=O)C(CCc1ccccc1)NC(C)C(=O)N1C(C(=O)O)CC2CCCC21` (configuration not stated), the LC retention time was found to be 8.56 min.

In the case of `Cc1ccc(N(CC2=NCCN2)c2cccc(O)c2)cc1`, the LC retention time was 5.86 min.

`COP(=O)(OC)OC(C)=CC(=O)N(C)C`: the LC retention time stood at 4.5 min.

Regarding `CC(C)Cc1ccc(C(C)C(=O)O)cc1` (configuration not stated), the LC retention time is 10.7 min.

Take `Cc1ccc(NC(=O)NC(C)(C)c2ccccc2)cc1`: the LC retention time is 9.68 min.

For the compound `CN(C)C(=S)SSC(=S)N(C)C`, the LC retention time was 6.8 min.

As to `CC(COc1ccccc1Cc1ccccc1)N1CCCCC1` (configuration not stated), the LC retention time was found to be 8.32 min.

With `Oc1ccc2c3c1OC1C(O)C=CC4C(C2)NCCC341` (configuration not stated), the LC retention time was found to be 2.71 min.

`COc1ccc2c(c1)C13CCCCC1C(C2)N(C)CC3` (configuration not stated): the LC retention time was 6.51 min.

In the case of `CN(C)CCc1c[nH]c2ccc(Cn3cncn3)cc12`, the LC retention time was found to be 3.49 min.

With `Cc1cccc(C)c1NC(=O)C1CCCCN1C` (configuration not stated), the LC retention time was found to be 4.66 min.

On to `CC(C(=O)c1ccc2c(c1)OCO2)N(C)C` (configuration not stated), for which the LC retention time is 3.78 min.

In the case of `CCOC(=O)C1(c2ccccc2)CCC=CC1NC` (configuration not stated), the LC retention time is 5.28 min.

Take `CCC=CCC1=C(C)C(OC(=O)C2C(C=C(C)C(=O)OC)C2(C)C)CC1=O` (configuration not stated): the LC retention time stood at 12.2 min.

For the compound `CC1CC(C)C(=O)C(C(O)CC2CC(=O)NC(=O)C2)C1` (configuration not stated), the LC retention time was 5.99 min.

In the case of `COP(=S)(OC)Oc1ccc(S(=O)(=O)N(C)C)cc1`, the LC retention time was 7.99 min.

For the compound `CC(C)(C)NCC(O)COc1cccc2c1CCC(=O)N2` (configuration not stated), the LC retention time came to 3.91 min.

As for `CCOC(=O)N(C)C(=O)CSP(=S)(OCC)OCC`, the LC retention time worked out at 10.2 min.

For the compound `CCCc1nn(C)c2c(=O)[nH]c(-c3cc(C(=O)N4CCN(CC)CC4)ccc3OCC)nc12`, the LC retention time amounted to 6.78 min.

`CCCc1cc(C(N)=S)ccn1`: the LC retention time was found to be 6.36 min.

On to `Cc1c(C(C)C)c(=O)n(-c2ccccc2)n1C`, for which the LC retention time is 7.23 min.

Regarding `CCC(CN(C)C)(CN(C)C)OC(=O)c1ccccc1`, the LC retention time was determined as 6.07 min.

As for `COc1ccc(-c2ccccc2)cc1NNC(=O)OC(C)C`, the LC retention time came out at 9.87 min.

For the compound `CCCCN(CCCC)CCCC`, the LC retention time is 5.28 min.

`COc1ccc(CN(CCN(C)C)c2ccccn2)cc1`: the LC retention time was determined as 5.89 min.

Regarding `CCCCc1c(C)nc(NCC)nc1OS(=O)(=O)N(C)C`, the LC retention time stood at 10.5 min.

For the compound `CN1CCCCC(n2cc(C(=O)c3cccc4ccccc34)c3ccccc32)C1` (configuration not stated), the LC retention time was 8.61 min.

Regarding `CC1NCCOC1c1ccccc1` (configuration not stated), the LC retention time is 4.14 min.

For `c1ccc2scnc2c1`, the LC retention time is 6.88 min.

As for `CCCCCCCCCc1ccc(OCCO)cc1`, the LC retention time was 13.2 min.

For the compound `CCCCCn1cc(C(=O)c2cccc3ccccc23)c2ccccc21`, the LC retention time stood at 12.4 min.

Take `Cc1ccc2n[nH]nc2c1`: the LC retention time was found to be 5.83 min.

As for `CNC(C)C(=O)c1ccc2c(c1)OCO2` (configuration not stated), the LC retention time was 3.81 min.

As for `O=C(O)CCCCC1SCC2NC(=O)NC21` (configuration not stated), the LC retention time was 4.44 min.

With `Nc1ccc([N+](=O)[O-])cc1C(=O)c1ccccc1`, the LC retention time was determined as 8.99 min.

As to `NNC(N)=O`, the LC retention time was 1.33 min.

As for `C=CC=CCC1=C(C)C(OC(=O)C2C(C=C(C)C)C2(C)C)CC1=O` (configuration not stated), the LC retention time amounted to 12.9 min.

As to `COC(=O)C(Cc1ccccc1)NC(=O)C(CC(=O)O)NCCC(C)(C)C` (configuration not stated), the LC retention time is 8.83 min.

`CNC(=O)ON=C(CSC)C(C)(C)C`: the LC retention time was 7.8 min.

On to `CNC(C)Cc1ccc2c(c1)OCO2` (configuration not stated), for which the LC retention time is 4.18 min.

In the case of `CC(C)(C)C(NC(=O)c1nn(CC2CCCCC2)c2ccccc12)C(N)=O` (configuration not stated), the LC retention time was found to be 11.7 min.

With `Cc1cn(C2CC(N=[N+]=[N-])C(CO)O2)c(=O)[nH]c1=O` (configuration not stated), the LC retention time came to 4.56 min.

Consider `CC12CCC(=O)C=C1CCC1C2C(O)CC2(C)C(C(=O)CO)CCC12` (configuration not stated), for which the LC retention time stood at 8.74 min.

Regarding `Nc1ncnc2nc[nH]c12`, the LC retention time stood at 2.43 min.

For the compound `CNC(=O)Oc1ccccc1C(C)C`, the LC retention time turned out to be 8.12 min.

In the case of `CCCCC(CC)CN1C(=O)C2C3C=CC(C3)C2C1=O` (configuration not stated), the LC retention time was found to be 11.6 min.

Take `CC(C(=O)c1ccccc1)N1CCCC1` (configuration not stated): the LC retention time came out at 4.01 min.

Regarding `CN=C(NC#N)NCCSCc1nc[nH]c1C`, the LC retention time is 3.24 min.

In the case of `NC(=O)CS(=O)C(c1ccccc1)c1ccccc1` (configuration not stated), the LC retention time was found to be 6.76 min.

Turning to `NCC1CCCCC1(O)c1cccc(O)c1` (configuration not stated), the LC retention time is 4.36 min.

As to `O=C1OCCN1N=Cc1ccc([N+](=O)[O-])o1`, the LC retention time is 4.19 min.

`COc1ccc(CC(C)N)cc1OC` (configuration not stated): the LC retention time was 3.94 min.

As to `CCOc1ccc2c(c1)C(C)=CC(C)(C)N2`, the LC retention time worked out at 10.1 min.

As for `COC1=CC(=O)OC(C=Cc2ccccc2)C1` (configuration not stated), the LC retention time was found to be 8.32 min.

With `COC(=O)C1C(O)CC2CCC1N2C` (configuration not stated), the LC retention time was determined as 1.38 min.

Take `NC(=O)N1c2ccccc2CC(O)c2ccccc21` (configuration not stated): the LC retention time worked out at 5.94 min.

With `CC(C)(C)NC(=O)C1CN(Cc2cccnc2)CCN1CC(O)CC(Cc1ccccc1)C(=O)NC1c2ccccc2CC1O` (configuration not stated), the LC retention time was 9.79 min.

As to `CCCCCC(C)N` (configuration not stated), the LC retention time was 5.01 min.

With `CCCc1nn(C)c2c(=O)[nH]c(-c3cc(C(=O)CN4CCN(C)CC4)ccc3OCC)nc12`, the LC retention time worked out at 6.99 min.

In the case of `CCN(CC)CC(=O)Nc1c(C)cccc1C(=O)OC`, the LC retention time was found to be 4.59 min.

Turning to `CCNC(C)C(O)c1ccc(O)c(O)c1` (configuration not stated), the LC retention time is 1.99 min.

As to `CCC(=O)c1ccc2c(c1)N(CCCN(C)C)c1ccccc1S2`, the LC retention time was 8.49 min.

As to `CN1CCC23c4c5ccc(O)c4OC2C(=O)CCC3C1C5` (configuration not stated), the LC retention time is 2.91 min.

For `CCCSC(=O)N(CCC)CCC`, the LC retention time amounted to 11.5 min.

For `CC(C)(C)NCC(O)COc1ccccc1C1CCCC1` (configuration not stated), the LC retention time came to 9.01 min.

Turning to `CC(Cc1ccc(C(C)(C)C)cc1)CN1CC(C)OC(C)C1` (configuration not stated), the LC retention time was 10.7 min.

Consider `CC(N)Cc1ccc(O)cc1` (configuration not stated), for which the LC retention time is 2.98 min.

For `COP(=S)(OC)Oc1ccc(S(C)(=O)=O)c(C)c1`, the LC retention time turned out to be 7.57 min.

As to `COc1ccc2c(c1)N(CC(C)CN(C)C)c1ccccc1S2=O` (configuration not stated), the LC retention time worked out at 5.98 min.

`c1ccc(C(CCN2CCCCC2)c2ccccc2)cc1`: the LC retention time amounted to 6.82 min.

On to `CCCCOc1cc(C(=O)OCCN(CC)CC)ccc1N`, for which the LC retention time came to 5.94 min.

Take `CNC(=O)ON=CC(C)(C)S(C)=O` (configuration not stated): the LC retention time turned out to be 3.5 min.

Take `CNC(=O)ON=C(C)C(C)S(C)=O` (configuration not stated): the LC retention time stood at 3.35 min.

In the case of `Cc1ccc(S(=O)(=O)NC(=O)NN2CCCCCC2)cc1`, the LC retention time worked out at 8.09 min.

`CCCCOCCOCCSC#N`: the LC retention time was determined as 8.12 min.

In the case of `CCC(=O)C(CC(C)N(C)C)(c1ccccc1)c1ccccc1` (configuration not stated), the LC retention time was determined as 8.04 min.

With `COC(=O)C1=C(C)NC(C)=C(C(=O)OCCN(C)Cc2ccccc2)C1c1cccc([N+](=O)[O-])c1` (configuration not stated), the LC retention time turned out to be 8.39 min.

For `CCCCCn1cc(C(=O)c2ccc(OC)c3ccccc23)c2ccccc21`, the LC retention time stood at 12.7 min.

Regarding `CC(C)OP(=O)(OC(C)C)SCc1ccccc1`, the LC retention time was found to be 10.6 min.

As to `CCCCCn1cc(C(=O)c2cccc3ccccc23)c2cccc(O)c21`, the LC retention time is 11.8 min.

Regarding `CCN(CC)CC(C)(C)COC(=O)c1ccc(N)cc1`, the LC retention time is 4.24 min.

As for `C=C(C)C1CCC(C)=CC1c1c(O)cc(CCCCC)cc1O` (configuration not stated), the LC retention time stood at 12.7 min.

In the case of `COc1ccc(OC)c(CCN)c1`, the LC retention time worked out at 4.43 min.

As to `Nc1nc2c(ncn2CCC(CO)CO)c(=O)[nH]1`, the LC retention time came out at 2.98 min.

For `Cc1cccc(Nc2ccncc2S(=O)(=O)NC(=O)NC(C)C)c1`, the LC retention time is 6.67 min.

Take `CC(C)c1nc(CN(C)C(=O)NC(C(=O)NC(Cc2ccccc2)CC(O)C(Cc2ccccc2)NC(=O)OCc2cncs2)C(C)C)cs1` (configuration not stated): the LC retention time was 11.1 min.
